Measured values from patent US20240002344A1, “COMPOUNDS, COMPOSITIONS AND METHODS FOR HISTONE LYSINE DEMETHYLASE INHIBITION” (FibroGen, Inc., priority 2020, published 2024).

How the values were obtained:
[1] = target: T1, recombinant human KDM5B (Homo sapiens, UniProt Q9UGL1); assay: 14CO2 capture enzymatic assay (decarboxylation of [1-14C] αKG), KDM5B; format: biochemical; details: 10 μM [1-14C] αKG, 90 μM non-labeled αKG, 50 μM peptide substrate, 37° C., 1 hour, final 1% DMSO
T1 sequence (Q9UGL1 374-755 limits assumed): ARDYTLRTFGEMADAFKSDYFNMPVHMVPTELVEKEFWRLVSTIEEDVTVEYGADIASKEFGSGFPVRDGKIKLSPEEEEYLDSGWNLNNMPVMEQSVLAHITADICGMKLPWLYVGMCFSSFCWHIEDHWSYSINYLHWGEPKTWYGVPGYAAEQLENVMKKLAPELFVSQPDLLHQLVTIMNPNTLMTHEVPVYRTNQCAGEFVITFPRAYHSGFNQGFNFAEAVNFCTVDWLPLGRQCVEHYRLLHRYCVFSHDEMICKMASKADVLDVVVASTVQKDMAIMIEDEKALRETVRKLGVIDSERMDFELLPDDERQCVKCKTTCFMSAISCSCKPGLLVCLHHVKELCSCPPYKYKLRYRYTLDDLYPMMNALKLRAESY
Protocol: (§1) Enzymatic activity was determined based on the capture of ^14CO2 released by the decarboxylation of [1-^14C] αKG (Zhang et al., Anal. Biochem., 1998, vol. 271, pp. 137-142). [1-^14C]alphaketoglutarate (αKG) was from Perkin-Elmer, H3K4me3 and H3K9me3 peptides were from Mimotopes. All other reagents were from Sigma. Reaction mixtures included the following components: Fe(SO4), [1-^14C] αKG, non-labeled αKG, ascorbate, peptide-substrate (H3K4me3: H-ARTK(me3)QTARKSTGGKAPRKQLA-OH. H3K9me3: H-ARTKQTARK(me3)STGGKAPRKQLA-OH), NaCl, Tween-20 and catalase in 25 mM HEPES buffer, pH 7.4. The enzymatic reactions were initiated by addition of recombinant human KDM5B or KDM4A enzyme (truncated enzyme produced in house by method and using sequence disclosed in Ng et al, Nature 448:87-91, 2007). The reactions were performed in 96-well microtiter plates (20 μL total assay volume) (Greiner #650201). ^14CO2 was captured on a glass fiber filter paper (Cat. No. IH-201-A, Inotech Biosystems International) soaked with saturated Ba(OH)2 that was laid on top of the 96-well plate. A microtiter plate sealer film (Thermal Seal cat #T7961100) was applied to the filter paper. The plate and filter paper were sandwiched between two custom made aluminum plates (Advanced Component Manufacturing, Burlingame, CA) and transferred to a 37° C. oven and allowed to incubate for 1 hour. After incubation, the filter paper was dried in a 103° C. oven for 40-60 minutes. To determine percent turnover, aliquots of the reaction mixture were spotted onto the filter paper and the filter paper was dried again. The dry filter paper was exposed to a storage phosphor screen for 24-72 hours and the images recorded using a Typhoon FLA 7000 Imager (Amersham Biosciences, Piscataway, NJ). Integrated spot intensities corresponding to control reactions lacking the enzyme were subtracted from integration results for enzyme containing reactions and data were converted to enzyme dependent percent ^14CO2 release. All enzymatic reactions were run in duplicates.
(§2) For IC50 determination, a 3-fold dilution series of compound was prepared and added to the reaction mixture (final 1% DMSO, v/v) prior to enzyme addition. The final reagent concentrations were: 10 μM Fe(SO4), 10 μM [1-^14C] αKG, 90 μM non-labeled αKG, 2 mM ascorbate, 50 μM peptide substrate, 75 mM NaCl, 0.01% Tween-20 and ˜2 units/μL catalase. IC50s were determined by non-linear fitting using Grafit version 7.0.

[2] = target: T2, recombinant human KDM4A (Homo sapiens, UniProt O75164); assay: 14CO2 capture enzymatic assay (decarboxylation of [1-14C] αKG), KDM4A; format: biochemical; details: 10 μM [1-14C] αKG, 90 μM non-labeled αKG, 50 μM peptide substrate, 37° C., 1 hour, final 1% DMSO
T2 construct: made in house
T2 sequence (O75164 1-359 limits assumed): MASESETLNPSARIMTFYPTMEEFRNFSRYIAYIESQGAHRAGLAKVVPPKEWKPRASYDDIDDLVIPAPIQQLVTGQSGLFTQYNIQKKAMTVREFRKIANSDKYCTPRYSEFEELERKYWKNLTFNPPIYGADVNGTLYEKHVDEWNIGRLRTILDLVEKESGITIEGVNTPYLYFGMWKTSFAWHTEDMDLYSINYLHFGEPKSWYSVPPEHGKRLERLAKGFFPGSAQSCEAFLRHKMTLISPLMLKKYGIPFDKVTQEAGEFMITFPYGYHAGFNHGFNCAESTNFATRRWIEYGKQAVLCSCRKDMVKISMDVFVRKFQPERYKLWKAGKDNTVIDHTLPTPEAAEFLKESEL
Protocol: as §1, §2

| SMILES | IC50 [1] [nM] | IC50 [2] [µM] |
| --- | --- | --- |
| N#Cc1cc(-c2ccc(F)cc2)nc(C(=O)CCC(=O)O)c1O [Example 19, 4-[4-Cyano-6-(4-fluoro-phenyl)-3-hydroxy-pyridin-2-yl]-4-oxo-butyric acid] | 230 | > 40 |
| Cc1cccc(-c2cc(C#N)c(O)c(C(=O)CCC(=O)O)n2)c1Cl [Example 101, 4-[6-(2-Chloro-3-methyl-phenyl)-4-cyano-3-hydroxy-pyridin-2-yl]-4-oxo-butyric acid] | 310 | > 40 |
| N#Cc1cc(Oc2ccc(F)cc2)cc(C(=O)CCC(=O)O)c1O [Example 142, 4-[3-Cyano-5-(4-fluoro-phenoxy)-2-hydroxy-phenyl]-4-oxo-butyric acid] | 280 | > 40 |
| N#Cc1cc(-c2cccc(Cl)c2)cc(C(=O)CCC(=O)O)c1O [Example 120, 4-(3′-Chloro-5-cyano-4-hydroxy-biphenyl-3-yl)-4-oxo-butyric acid] | 150 | > 40 |
| Cc1cccc(-c2cc(C#N)c(O)c(C(=O)CCC(=O)O)n2)c1C [Example 92, 4-[4-Cyano-6-(2,3-dimethyl-phenyl)-3-hydroxy-pyridin-2-yl]-4-oxo-butyric acid] | 370 | > 40 |
| N#Cc1cc(Cc2c(Cl)cc(OC(F)(F)F)cc2Cl)nc(C(=O)CCC(=O)O)c1O [Example 143, 4-[4-Cyano-6-(2,6-dichloro-4-trifluoromethoxy-benzyl)-3-hydroxy-pyridin-2-yl]-4-oxo-butyric acid] | 230 | > 40 |
| Cc1cccc(C)c1C(=O)N(C)c1cc(C#N)c(O)c(C(=O)CCC(=O)O)n1 [Example 130, 4-{4-Cyano-6-[(2,6-dimethyl-benzoyl)-N-methyl-amino]-3-hydroxy-pyridin-2-yl}-4-oxo-butyric acid] | 3200 | > 40 |
| N#Cc1cc(Oc2ccccc2)cc(C(=O)CCC(=O)O)c1O [Example 132, 4-(3-Cyano-2-hydroxy-5-phenoxy-phenyl)-4-oxo-butyric acid] | 310 | > 40 |
| N#Cc1cc(-c2cccnc2)nc(C(=O)CCC(=O)O)c1O [Example 13, 4-(4-Cyano-5-hydroxy-[2,3′]bipyridinyl-6-yl)-4-oxo-butyric acid] | 140 | 22 |
| COc1ccc(-c2cc(C#N)c(O)c(C(=O)CCC(=O)O)n2)c(Cl)c1 [Example 81, 4-[6-(2-Chloro-4-methoxy-phenyl)-4-cyano-3-hydroxy-pyridin-2-yl]-4-oxo-butyric acid] | 340 | > 40 |
| N#Cc1cc(Cc2c(Cl)cccc2C(F)(F)F)nc(C(=O)CCC(=O)O)c1O [Example 59, 4-[6-(2-Chloro-6-trifluoromethyl-benzyl)-4-cyano-3-hydroxy-pyridin-2-yl]-4-oxo-butyric acid] | 330 | > 40 |
| Cc1cccc(-c2cc(C#N)c(O)c(C(=O)CCC(=O)O)n2)c1 [Example 72, 4-(4-Cyano-3-hydroxy-6-m-tolyl-pyridin-2-yl)-4-oxo-butyric acid] | 100 | > 40 |
| Cc1cc(C(F)(F)F)ccc1-c1cc(C#N)c(O)c(C(=O)CCC(=O)O)n1 [Example 96, 4-[4-Cyano-3-hydroxy-6-(2-methyl-4-trifluoromethyl-phenyl)-pyridin-2-yl]-4-oxo-butyric acid] | 310 | > 40 |
| Cc1ccc(Cl)c(Cc2cc(C#N)c(O)c(C(=O)CCC(=O)O)n2)c1Cl [Example 155, 4-[4-Cyano-6-(2,6-dichloro-3-methyl-benzyl)-3-hydroxy-pyridin-2-yl]-4-oxo-butyric acid] | 180 | 34 |
| N#Cc1cc(F)ccc1-c1cc(C#N)c(O)c(C(=O)CCC(=O)O)n1 [Example 87, 4-[4-Cyano-6-(2-cyano-4-fluoro-phenyl)-3-hydroxy-pyridin-2-yl]-4-oxo-butyric acid] | 280 | > 40 |
| N#Cc1cc(Cc2c(F)cccc2Cl)nc(C(=O)CCC(=O)O)c1O [Example 30, 4-[6-(2-Chloro-6-fluoro-benzyl)-4-cyano-3-hydroxy-pyridin-2-yl]-4-oxo-butyric acid] | 250 | 17 |

The next lines start with the values.

| IC50 [1] [nM] | IC50 [2] [µM] | SMILES |
| --- | --- | --- |
| 270 | > 40 | N#Cc1cc(-c2cc(F)ccc2Cl)nc(C(=O)CCC(=O)O)c1O [Example 108, 4-[6-(2-Chloro-5-fluoro-phenyl)-4-cyano-3-hydroxy-pyridin-2-yl]-4-oxo-butyric acid] |
| 70 | 2.9 | N#Cc1cc(Cc2c(Cl)cc(F)cc2Cl)nc(C(=O)CCC(=O)O)c1O [Example 126, 4-[4-Cyano-6-(2,6-dichloro-4-fluoro-benzyl)-3-hydroxy-pyridin-2-yl]-4-oxo-butyric acid] |
| 280 | > 40 | N#Cc1cc(-c2cccc3ccccc23)nc(C(=O)CCC(=O)O)c1O [Example 68, 4-(4-Cyano-3-hydroxy-6-naphthalen-1-yl-pyridin-2-yl)-4-oxo-butyric acid] |
| 240 | 71 | CSc1cc(C#N)c(O)c(C(=O)CCC(=O)O)n1 [Example 5, 4-(4-Cyano-3-hydroxy-6-methylsulfanyl-pyridin-2-yl)-4-oxo-butyric acid] |
| 990 | > 40 | CN(C(=O)c1ccccc1)c1cc(C#N)c(O)c(C(=O)CCC(=O)O)n1 [Example 159, 4-[6-(Benzoyl-N-methyl-amino)-4-cyano-3-hydroxy-pyridin-2-yl]-4-oxo-butyric acid] |
| 120 | > 40 | N#Cc1cc(Cc2c(Cl)ccc(F)c2Cl)cc(C(=O)CCC(=O)O)c1O [Example 134, 4-[3-Cyano-5-(2,6-dichloro-3-fluoro-benzyl)-2-hydroxy-phenyl]-4-oxo-butyric acid] |
| 150 | 37 | N#Cc1cc(Cc2ccccc2F)nc(C(=O)CCC(=O)O)c1O [Example 43, 4-[4-Cyano-6-(2-fluoro-benzyl)-3-hydroxy-pyridin-2-yl]-4-oxo-butyric acid] |
| 450 | > 40 | CCc1ccccc1-c1cc(C#N)c(O)c(C(=O)CCC(=O)O)n1 [Example 85, 4-[4-Cyano-6-(2-ethyl-phenyl)-3-hydroxy-pyridin-2-yl]-4-oxo-butyric acid] |
| 470 | > 40 | COc1ccccc1-c1cc(C#N)c(O)c(C(=O)CCC(=O)O)n1 [Example 14, 4-[4-Cyano-3-hydroxy-6-(2-methoxy-phenyl)-pyridin-2-yl]-4-oxo-butyric acid] |
| 280 | > 40 | Cc1cc(C#N)c(O)c(C(=O)CCC(=O)O)n1 [Example 6, 4-(4-Cyano-3-hydroxy-6-methyl-pyridin-2-yl)-4-oxo-butyric acid] |
| 350 | > 40 | COc1ccc(Cl)c(-c2cc(C#N)c(O)c(C(=O)CCC(=O)O)n2)c1 [Example 106, 4-[6-(2-Chloro-5-methoxy-phenyl)-4-cyano-3-hydroxy-pyridin-2-yl]-4-oxo-butyric acid] |
| 200 | > 40 | N#Cc1cc(-c2cccc(C(F)(F)F)c2)nc(C(=O)CCC(=O)O)c1O [Example 28, 4-[4-Cyano-3-hydroxy-6-(3-trifluoromethyl-phenyl)-pyridin-2-yl]-4-oxo-butyric acid] |
